Experimental data taken from patent publication US20110117120A1, “Plasmodium falciparum HLA class I restricted T-cell epitopes” (priority 2009, published 2011).
“Also recorded” adds a separate entry of the source.

Tests used:
Type in all cases: cell-based, human
PBMC [1] = test: ELISpot IFN-γ assay with PBMC of AdPfCA / DNA-primed volunteers (Example 2); settings: 12 wk post challenge
Source text: To more clearly define immunological active regions of AMA1, PBMCs were isolated from AMA1 immunized volunteers. Two groups of volunteers, i.e., Gp 1 (from example 1, above) and Gp2, received 2×10^10 particle units of AdPfCA (NMRC-M3V-Ad-PfCA, NMRC+Multi-antigen Multi-stage, Malaria Vaccine+Adenovector+P. falciparum CSP & AMA1 antigens). The vaccine is a combination of two separate recombinant Ad5 constructs, one expressing full length CSP and the other expressing full length apical membrane antigen 1 (AMA1). AdPfCA expressed the AMA1 regions A1 through A12. Twenty-eight (28) days later, PBMC's were collected.
In a third group (termed preCh in FIG. 7 and FIG. 8), fifteen volunteers were primed with three doses (2 mg/dose) with one month between doses. Sixteen weeks after the final DNA priming dose, each volunteer received 2×10^10 particle units of AdPfCA. PBMC's were collected on day 22-23 after receiving AdPfCA. The region of the AMA gene expressed by the DNA expression plasmid is also illustrated in FIG. 6. The DNA vaccine expressed approximately half of the A1 region of AMA1, the entire regions of A2 through A10 and a portion of A11. As in Gp 1 and Gp 2, AdPfCA expressed the AMA1 regions A1 through A12.
(§1) The stimulation of circulating antigen-specific T cell lymphocytes was evaluated by measurement of γ-IFN induction by ELISPOT. The ELISpot assay was conducted using thawed cryopreserved PBMC at 200 K cells per well. Pre-challenge cells were taken at day 21 and day 22 post AdPfCA vaccination. Cells were suspended in […] complete medium and were stimulated with AMA1 peptides suspended in […] of complete medium. Peptide concentrations used in assays was 10 μg/ml of each peptide tested. Cultures were incubated for 36 h at 37° C., 5% CO2. Depending on availability of cells, each PBMC sample was assayed in duplicate, triplicate, or quadruplicate and the number of IFN-γ-secreting cells recognized as spot-forming cells (SFC) was enumerated using an automated ELISpot reader. In duplicate assays, all values were used in analysis. For triplicate or quadruplicate assays, outliers were rejected if any single value contributed more than 50% of the standard deviation of the triplicate (or quadruplicate) and if its value was three-fold greater or less than the average of the remaining two (or three) values. The mean spot forming cells (SFCs) obtained in negative control wells were subtracted from the value of each test well from the same sample. Negative counts generated by this background subtraction were converted to zero. The mean spot number of the test sample was then calculated and expressed as SFC/million PBMCs. Values obtained with pre-vaccinated samples were subtracted from the post-vaccination values.
In a further study, volunteers were immunized with AdCA. […]

[2] = tested on: CD8+ or CD4+ T-cell depleted PBMC; test: ELISpot IFN-γ assay after CD8+ or CD4+ T-cell depletion (Example 2, Table 6); settings: for CD4^+ depletion % change / CD8^+ Depletion % change / CD4^+ depletion, test / CD8^+ Depletion, test / CD4^+ depletion, control / CD8^+ Depletion, control: Vol. 1550-11; for CD4^+ depletion, test: CD4+ depleted; for CD8^+ Depletion, test: CD8+ depleted
Method: PBMC population depletion was conducted using anti-human CD4+ and anti-CD8^+ coated Dynabeads™ M-450 (Dynal, Great Neck, N.Y.) following the manufacturer's instructions. Mock depletion was done with Dynabeads coated with Sheep anti-mouse IgG. Flow cytometry confirmed that T-cell subset depletions were >99% in all experiments. The data is presented as the % effect (decrease) in activity after T cell subset depletion. […]
The results of this study, summarized in Table 6, identified other CD8^+ epitopes, associated specific HLA class I genes.

[3] = tested on: CD4+ and CD8+ T cells of PBMC; test: Intracellular cytokine staining (ICS) of CD4+ and CD8+ T cells; settings: v001 and v005; FIG. 3
Method: ICS was performed on PBMCs with costimulatory antibodies anti-CD28 and […] (obtained from BD Bioscience™, San Jose, Calif.). The peptides were used at the same concentrations as in ELISpot assays. Stimulants were added t cells and incubated at 37° C. with 5% CO2 for 2 hr. Golgi Plug™ (Brefeldin A) (BD Bioscience™, San Jose, Calif.) was added at a final concentration of 0.6 μL/mL and incubated at 37° C. with 5% CO2 overnight. Cells were stained with anti-CD3 (Alexa Fluor 700™), anti-CD4 (PerCP™), and anti-CD8 Pacific Blue™ (obtained from BD Bioscience™, San Jose, Calif.). and 1 μg/mL of live/dead fixable blue dye, incubated and washed. Cells were permeabilized with Cytofix/Cytoperm™ solution (obtained from BD Bioscience™, San Jose, Calif.), incubated and washed. Cells were stained intracellularly with anti-CD3 ([…]), anti-CD4 (PerCP™), and anti-CD8 Pacific Blue™, anti-IFN-γ FITC, anti-TNF PE, and anti-IL2 APC, incubated and washed. Cells were resuspended and the entire available sample was acquired by flowcytometry. The gating strategy included progressively measuring total cells; viable cells only; lymphocytes; T cells; CD4^+ CD8^+ populations; and a specific cell type expressing a specific cytokine. Histograms were used to determine the total production of IFN-γ, IL2, and TNF for the CD4^+ and CD8^+ populations. Boolean gates were used to determine cells producing combinations of cytokines.
In these studies, T cells containing IFN-γ, IL2, or TNFα, were gated into different subsets: IFN-γ+, IL2+, TNFα−; IFN-γ+, IL2-, TNFα+; IFN-γ+, IL2+, TNFα+; or IFN-γ+, IL2−, TNFα− T cells, and stimulated with the predicted epitopes and their parent peptide pool. The frequency of CD8^+ T cells producing total IFN-γ was far greater than CD4^+ T cell responses (FIG. 1, upper panel), which were extremely low.

PBMC [4] = test: ELISpot IFN-γ assay with PBMC of Ad5-PfCA immunized volunteers (Example 1); settings: threshold 40 SFC/million
Method: In order to assess the pools for their ability to induce T-cell responses, specifically CD 8^+ responses, PBMC, 1 month post immunization were used, from the five volunteers in Table 1, in ELISpot assays. In these studies, IFN-γ activity was measured in response to exposure to the peptide pools. The assays were conducted essentially as described by Wang, et al., Proc. Natl. Acad. Sci. (U.S.A.), 98: 10817-22.
as §1

Sequence | Unfract. PBMC (PBMC [1]; Vol. 1550-10) | Unfract. PBMC (PBMC [1]; Vol. 1550-18) | CD4^+ depletion % change ([2]; 4 wk post challenge) | CD8^+ Depletion % change ([2]; 4 wk post challenge) | CD4^+ depletion, test ([2]; 4 wk post challenge) | CD8^+ Depletion, test ([2]; 4 wk post challenge) | CD4^+ depletion, control ([2]; 4 wk post challenge) | CD8^+ Depletion, control ([2]; 4 wk post challenge) | CD4^+ depletion % change ([2]; Pre-challenge) | CD8^+ Depletion % change ([2]; Pre-challenge) | CD4^+ depletion, test ([2]; Pre-challenge) | CD8^+ Depletion, test ([2]; Pre-challenge) | CD4^+ depletion, control ([2]; Pre-challenge) | CD8^+ Depletion, control ([2]; Pre-challenge) | reduction in ELISpot response after depletion of CD8^+ T-cells ([2]; summary of Table 6) | CD4^+ versus CD8^+ T cell IFN-γ response (ICS and ELISpot depletion, words) [3] | IFN-γ ELISpot activity of individual 15-mer peptide (PBMC [4]; Volunteer 002) | IFN-γ ELISpot activity of individual 15-mer peptide (PBMC [4]; Volunteer 005)
KSHGKGYNW (listed as Plasmodium falciparum) | 159 SFC/10^6 | 181 SFC/10^6 |  |  |  |  |  |  |  |  |  |  |  |  |  |  |  | 
REHPKEYEYPLHQEH [Ap1-12] |  |  | 78% | 70% | 28 SFC/10^6 | 37 SFC/10^6 | 126 SFC/10^6 | 126 SFC/10^6 | 59% | 49% | 67 SFC/10^6 | 83 SFC/10^6 | 161 SFC/10^6 | 161 SFC/10^6 | 49-66% | strongly recognized by CD8^+ T cells; also recorded: induced both CD4^+ and CD8^+ T cell responses | 66 SFC/10^6 | 118 SFC/10^6
YKSHGKGYNW (listed as Plasmodium falciparum) | 144 SFC/10^6 | 271 SFC/10^6 |  |  |  |  |  |  |  |  |  |  |  |  |  |  |  | 
